Reference: patent publication US20040176474A1 (priority 2003, published 2004)

Legend:
[1] = UN Test Series 3 overall conclusion; assay type: physicochemical; details: sensitivity for transportation
Description: UN Test Series 3: Drop Impact
Conclusion of UN Tests Series 3 Results:

[2] = Adiabatic compression test; assay type: physicochemical
Description: Adiabatic Compression Test
This test determines the initiation sensitivity of the material to sudden gas compression, such as liquid inertia compressing entrained gas bubbles during transportation or hydrostatic pressure heads which form when pumping liquid or opening and closing valves. The test is performed with a plunger to rapidly compress gas from a drop height of at least 100 cm within a cylindrical chamber containing the sample. Energy is delivered to the plunger with a drop weight. A failed test is one in which any smoke, discoloration, char, spark or audible report result from the test. Neat propargyl bromide and the single solvent formulation pass the test at drop height of 150 cm in nitrogen and fail the test in air at drop heights of 100 cm and 150 cm.

SMILES: C#CCBr [neat propargyl bromide, 3-bromopropyne]
- UN Test Series 3 conclusion [1]: too sensitive to mechanical impact to allow transportation
- Adiabatic compression test result (pass/fail) ([2]; drop height of 150 cm in nitrogen): pass
- Adiabatic compression test result (pass/fail) ([2]; in air at drop heights of 100 cm and 150 cm): fail
